Active and inactive are the calls of the source. The calls are words filed in the database; no cut-off is given here.
Tests used:
[1] = target: cAMP-dependent protein kinase (PKA) (Homo sapiens) (UniProt P22694+P17612+P22612); assay: Inhibition of PKA (unknown origin) at 1 uM relative to control; values are per cent of control
4T1 [2] = assay: Inhibition of colony formation in mouse 4T1 cells assessed as reduction in cell number at 0.4 to 1 uM measured after 4 days by phase contrast microscopy analysis; format: functional, cell-based; details: dose 0.4-1 µM, time 4.0 day
4T1 [3] = assay: Inhibition of cell adhesion to fibronectin in mouse 4T1 cells at 0.4 uM incubated for 4 hrs by […]; format: functional, cell-based
4T1 [4] = assay: Induction of apoptosis in mouse 4T1 suspended cells at 0.1 to 1 uM incubated for 48 hrs by PI staining based flow cytometry analysis; format: functional, cell-based; details: dose 0.1-1 µM
4T1 [5] = assay: Induction of apoptosis in mouse 4T1 cells assessed as increase in cell apoptosis at 0.1 to 1 uM measured after 2 days by visual analysis; format: functional; details: dose 0.1-1 µM, time 2 day
Homo sapiens = species on record: Homo sapiens; assay: Inhibition of p70S6K (unknown origin) at 0.1 uM relative to control; values are per cent of control
4T1 [6] = assay: Antitumor activity against mouse 4T1 cells harbouring mCherry red fluorescent protein implanted in BALB/c mouse assessed as fold reduction in tumor weight at 100 mg/kg, sc bid measured after 5 days; format: functional; details: time 5 day
[7] = target: Aurora kinase A (Homo sapiens) (UniProt O14965); assay: Inhibition of Aurora-A (unknown origin) at 1 uM relative to control
[8] = Toxicity in C57BL6 mouse implanted with mouse ID8 cells assessed as adverse effects at 0.5 mg/ml administered as solution in 5% sucrose measured after 30 days; format: cell-based; details: id8, 720 h, time 30 day
[9] = target: Focal adhesion kinase 1 (Mus musculus) (UniProt P34152); assay: Inhibition of FAK phosphorylation at Tyr397 residue in mouse ID8 cells harbouring mCherry red fluorescent protein at 0.1 to 1 uM incubated for 1 hr by immunoblotting analysis; format: cell-based; details: dose 0.1-1 µM
ID8 [10] = assay: Antitumor activity against mouse ID8 cells implanted in C57BL6 mouse assessed as reduction in number of ascites-associated cells at 0.5 mg/ml administered as solution in 5% sucrose measured after 30 days; format: functional, cell-based; details: time 30.0 day
4T1 [11] = assay: Induction of cell cycle arrest in mouse 4T1 cells assessed as accumulation at sub-diploid cells at 1 uM measured after 72 hrs by PI staining based flow cytometry analysis; format: functional
[12] = target: Focal adhesion kinase 1 (Mus musculus) (UniProt P34152); assay: Inhibition of FAK phosphorylation at Y397 residue in mouse 4T1 adherent cells at 0.1 uM incubated for 24 hrs by immunoblotting analysis; format: cell-based
[13] = target: Epidermal growth factor receptor (Homo sapiens) (UniProt P00533); assay: Inhibition of EGFR (unknown origin) at 1 uM relative to control; values are per cent of control
[14] = target: Death-associated protein kinase 1 (Homo sapiens) (UniProt P53355); assay: Inhibition of DAPK1 (unknown origin) at 0.1 uM relative to control; values are per cent of control
[15] = target: Serine/threonine-protein kinase Chk1 (Homo sapiens) (UniProt O14757); assay: Inhibition of CHK1 (unknown origin) at 0.1 uM relative to control; values are per cent of control
ID8 [16] = assay: Antitumor activity against mouse ID8 cells implanted in C57BL6 mouse assessed as inhibition of FAK phosphorylation at Y397 residue at 0.5 mg/ml administered as solution in 5% sucrose measured after 30 days by immunoblotting analysis; format: functional, cell-based; details: time 30.0 day
[17] = target: Protein kinase C alpha type (Homo sapiens) (UniProt P17252); assay: Inhibition of PKCa (unknown origin) at 1 uM relative to control; values are per cent of control
4T1 [18] = assay: Induction of apoptosis in mouse 4T1 adherent cells upto 0.1 uM incubated for 24 hrs by annexin V staining based flow cytometry analysis; format: functional, cell-based
4T1 [19] = assay: Effect on p130Cas phosphorylation at Tyr249 residue in mouse 4T1 cultured as 3D spheroids at 0.1 uM incubated for 24 hrs by immunoblotting analysis; format: functional, cell-based
[20] = target: Insulin receptor (Homo sapiens) (UniProt P06213); assay: Inhibition of IR (unknown origin) at 0.1 uM relative to control; values are per cent of control
4T1 [21] = assay: Antitumor activity against mouse 4T1 cells harbouring mCherry red fluorescent protein implanted in BALB/c mouse assessed as increase in cleaved caspase-3 in tumor at 30 to 100 mg/kg, sc bid measured after 5 days by Hoechst staining based microscopic analysis; format: functional, organism-based; details: dose 30-100 mg/kg, time 5.0 day
4T1 [22] = assay: Effect on p130Cas phosphorylation in mouse 4T1 cultured as […] at 0.1 to 1 uM incubated for 24 hrs by immunoblotting analysis; format: functional, cell-based; details: dose 0.1-1 µM
[23] = target: Rho-associated protein kinase 1 (Homo sapiens) (UniProt Q13464); assay: Inhibition of ROCK1 (unknown origin) at 0.1 uM relative to control; values are per cent of control
4T1 [24] = assay: Inhibition of cell migration in mouse 4T1 cells assessed as maximal efficacy at 0.4 uM incubated for 4 hrs by millicell-motility assay; format: functional
[25] = target: Mitogen-activated protein kinase 1 (Homo sapiens) (UniProt P28482); assay: Inhibition of MAPK1 (unknown origin) at 0.1 uM relative to control; values are per cent of control
[26] = target: Tyrosine-protein kinase Lck (Homo sapiens) (UniProt P06239); assay: Inhibition of Lck (unknown origin) at 1 uM relative to control; values are per cent of control
4T1 [27] = assay: Induction of apoptosis in mouse 4T1 suspended cells at 0.1 uM incubated for 72 hrs by PI staining based flow cytometry analysis; format: functional, cell-based
[28] = target: Focal adhesion kinase 1 (Mus musculus) (UniProt P34152); assay: Inhibition of FAK phosphorylation at Y397 residue in mouse 4T1 suspended cells at 0.1 uM incubated for 24 hrs by immunoblotting analysis; format: cell-based
[29] = target: Ephrin type-A receptor 1 (Homo sapiens) (UniProt P21709); assay: Inhibition of EphA1 (unknown origin) at 1 uM relative to control; values are per cent of control
4T1 [30] = assay: Induction of cell cycle arrest in mouse 4T1 adherent cells assessed as accumulation at S phase at 1 uM measured after 72 hrs by PI staining based flow cytometry analysis (reference value: 15.3%); format: functional
[31] = target: Tyrosine-protein kinase Fyn (Homo sapiens) (UniProt P06241); assay: Inhibition of Fyn (unknown origin) at 0.1 uM relative to control; values are per cent of control
[32] = target: Focal adhesion kinase 1 (Mus musculus) (UniProt P34152); assay: Inhibition of FAK phosphorylation at Tyr397 residue in mouse 4T1 cells harbouring mCherry red fluorescent protein at 0.1 to 1 uM incubated for 1 hr by immunoblotting analysis; format: cell-based; details: dose 0.1-1 µM

Focal adhesion kinase 1 (Mus musculus), sequence (P34152 whole entry): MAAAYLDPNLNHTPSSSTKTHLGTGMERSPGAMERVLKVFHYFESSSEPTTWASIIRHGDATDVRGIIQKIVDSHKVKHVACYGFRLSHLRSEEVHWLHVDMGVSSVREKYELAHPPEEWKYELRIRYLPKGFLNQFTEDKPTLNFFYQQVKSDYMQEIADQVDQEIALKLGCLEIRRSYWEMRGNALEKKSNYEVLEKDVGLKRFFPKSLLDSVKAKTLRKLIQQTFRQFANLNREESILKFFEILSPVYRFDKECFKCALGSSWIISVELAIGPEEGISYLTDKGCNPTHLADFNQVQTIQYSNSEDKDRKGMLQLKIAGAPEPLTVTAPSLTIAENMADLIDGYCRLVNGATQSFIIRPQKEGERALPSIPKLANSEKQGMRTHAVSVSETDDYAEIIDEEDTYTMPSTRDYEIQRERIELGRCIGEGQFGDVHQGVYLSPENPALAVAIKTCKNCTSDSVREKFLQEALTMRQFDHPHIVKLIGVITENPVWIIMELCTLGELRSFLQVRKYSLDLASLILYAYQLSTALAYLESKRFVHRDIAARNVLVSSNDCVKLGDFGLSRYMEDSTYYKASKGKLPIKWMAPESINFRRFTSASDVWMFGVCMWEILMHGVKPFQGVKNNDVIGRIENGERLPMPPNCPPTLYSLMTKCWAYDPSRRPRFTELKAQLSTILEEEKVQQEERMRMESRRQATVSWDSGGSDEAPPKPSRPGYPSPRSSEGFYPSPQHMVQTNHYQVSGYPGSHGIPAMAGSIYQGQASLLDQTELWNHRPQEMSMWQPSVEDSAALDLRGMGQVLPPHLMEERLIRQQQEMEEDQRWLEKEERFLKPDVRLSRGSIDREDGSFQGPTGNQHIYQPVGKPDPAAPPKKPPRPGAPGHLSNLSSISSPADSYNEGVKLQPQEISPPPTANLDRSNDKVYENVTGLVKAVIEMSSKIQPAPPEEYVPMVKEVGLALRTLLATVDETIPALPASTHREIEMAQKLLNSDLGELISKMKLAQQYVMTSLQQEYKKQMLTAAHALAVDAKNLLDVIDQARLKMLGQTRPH
Tyrosine-protein kinase Lck (Homo sapiens), sequence (P06239 2-509 limits assumed): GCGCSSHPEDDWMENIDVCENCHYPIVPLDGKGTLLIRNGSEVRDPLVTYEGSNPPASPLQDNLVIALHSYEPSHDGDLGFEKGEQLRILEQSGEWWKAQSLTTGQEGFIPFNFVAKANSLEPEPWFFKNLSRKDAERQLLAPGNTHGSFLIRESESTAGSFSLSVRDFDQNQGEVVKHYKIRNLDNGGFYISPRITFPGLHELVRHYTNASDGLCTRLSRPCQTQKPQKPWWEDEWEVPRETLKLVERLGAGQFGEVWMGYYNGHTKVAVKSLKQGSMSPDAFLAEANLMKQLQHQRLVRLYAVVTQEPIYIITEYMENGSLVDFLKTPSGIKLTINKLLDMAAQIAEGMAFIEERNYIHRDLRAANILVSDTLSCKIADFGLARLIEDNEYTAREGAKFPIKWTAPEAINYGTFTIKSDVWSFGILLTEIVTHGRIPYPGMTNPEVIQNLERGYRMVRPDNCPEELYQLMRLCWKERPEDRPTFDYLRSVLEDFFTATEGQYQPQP
Tyrosine-protein kinase Fyn (Homo sapiens), sequence (P06241 2-537 limits assumed): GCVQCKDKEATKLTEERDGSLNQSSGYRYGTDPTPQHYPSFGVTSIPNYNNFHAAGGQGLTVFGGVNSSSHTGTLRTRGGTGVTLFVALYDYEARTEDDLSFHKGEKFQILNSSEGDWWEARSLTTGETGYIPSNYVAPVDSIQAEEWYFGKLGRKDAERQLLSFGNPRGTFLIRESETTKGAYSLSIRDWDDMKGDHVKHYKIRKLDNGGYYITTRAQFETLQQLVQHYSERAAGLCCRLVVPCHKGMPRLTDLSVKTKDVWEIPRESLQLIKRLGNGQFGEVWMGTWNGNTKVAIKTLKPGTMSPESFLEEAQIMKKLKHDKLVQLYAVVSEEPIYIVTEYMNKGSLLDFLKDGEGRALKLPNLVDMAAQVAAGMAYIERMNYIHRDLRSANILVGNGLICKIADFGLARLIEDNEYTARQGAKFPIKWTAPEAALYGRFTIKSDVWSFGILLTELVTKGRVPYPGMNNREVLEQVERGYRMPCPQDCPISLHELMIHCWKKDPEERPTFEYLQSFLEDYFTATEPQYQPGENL
Death-associated protein kinase 1 (Homo sapiens), sequence (P53355 whole entry, looked up): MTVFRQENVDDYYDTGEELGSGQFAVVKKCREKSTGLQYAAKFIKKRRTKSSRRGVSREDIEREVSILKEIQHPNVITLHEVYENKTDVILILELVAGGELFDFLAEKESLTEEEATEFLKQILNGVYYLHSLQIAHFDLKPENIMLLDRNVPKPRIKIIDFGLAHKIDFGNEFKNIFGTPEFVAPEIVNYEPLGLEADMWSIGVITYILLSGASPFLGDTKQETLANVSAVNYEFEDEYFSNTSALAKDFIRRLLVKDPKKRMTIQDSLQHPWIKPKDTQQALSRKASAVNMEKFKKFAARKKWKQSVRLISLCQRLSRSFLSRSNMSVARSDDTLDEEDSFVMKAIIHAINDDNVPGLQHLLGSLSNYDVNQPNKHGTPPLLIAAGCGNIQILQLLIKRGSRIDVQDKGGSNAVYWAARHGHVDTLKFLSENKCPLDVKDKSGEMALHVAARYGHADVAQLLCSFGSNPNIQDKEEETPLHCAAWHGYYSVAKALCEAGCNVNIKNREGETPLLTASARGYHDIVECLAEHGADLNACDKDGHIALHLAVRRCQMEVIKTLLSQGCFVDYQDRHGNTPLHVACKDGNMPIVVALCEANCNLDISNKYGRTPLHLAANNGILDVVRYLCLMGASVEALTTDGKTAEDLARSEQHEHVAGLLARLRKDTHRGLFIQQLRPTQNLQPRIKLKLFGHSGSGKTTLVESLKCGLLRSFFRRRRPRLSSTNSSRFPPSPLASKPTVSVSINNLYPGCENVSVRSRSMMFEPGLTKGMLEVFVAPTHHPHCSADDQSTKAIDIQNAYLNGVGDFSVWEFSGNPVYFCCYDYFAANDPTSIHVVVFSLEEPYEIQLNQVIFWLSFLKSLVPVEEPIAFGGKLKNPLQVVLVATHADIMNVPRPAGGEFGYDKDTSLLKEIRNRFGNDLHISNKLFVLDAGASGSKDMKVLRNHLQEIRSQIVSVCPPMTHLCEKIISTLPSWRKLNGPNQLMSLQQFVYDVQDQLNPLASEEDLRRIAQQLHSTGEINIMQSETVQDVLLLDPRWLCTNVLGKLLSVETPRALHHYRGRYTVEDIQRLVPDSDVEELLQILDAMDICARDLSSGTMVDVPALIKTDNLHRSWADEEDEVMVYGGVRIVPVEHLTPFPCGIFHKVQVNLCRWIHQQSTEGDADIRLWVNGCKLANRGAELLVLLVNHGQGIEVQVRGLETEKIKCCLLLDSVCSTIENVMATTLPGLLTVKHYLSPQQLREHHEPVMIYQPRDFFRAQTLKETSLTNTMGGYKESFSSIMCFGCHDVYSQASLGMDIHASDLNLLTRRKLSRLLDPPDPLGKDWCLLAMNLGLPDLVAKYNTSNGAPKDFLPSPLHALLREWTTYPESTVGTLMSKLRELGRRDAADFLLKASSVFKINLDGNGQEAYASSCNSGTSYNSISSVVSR
Ephrin type-A receptor 1 (Homo sapiens), sequence (P21709 whole entry): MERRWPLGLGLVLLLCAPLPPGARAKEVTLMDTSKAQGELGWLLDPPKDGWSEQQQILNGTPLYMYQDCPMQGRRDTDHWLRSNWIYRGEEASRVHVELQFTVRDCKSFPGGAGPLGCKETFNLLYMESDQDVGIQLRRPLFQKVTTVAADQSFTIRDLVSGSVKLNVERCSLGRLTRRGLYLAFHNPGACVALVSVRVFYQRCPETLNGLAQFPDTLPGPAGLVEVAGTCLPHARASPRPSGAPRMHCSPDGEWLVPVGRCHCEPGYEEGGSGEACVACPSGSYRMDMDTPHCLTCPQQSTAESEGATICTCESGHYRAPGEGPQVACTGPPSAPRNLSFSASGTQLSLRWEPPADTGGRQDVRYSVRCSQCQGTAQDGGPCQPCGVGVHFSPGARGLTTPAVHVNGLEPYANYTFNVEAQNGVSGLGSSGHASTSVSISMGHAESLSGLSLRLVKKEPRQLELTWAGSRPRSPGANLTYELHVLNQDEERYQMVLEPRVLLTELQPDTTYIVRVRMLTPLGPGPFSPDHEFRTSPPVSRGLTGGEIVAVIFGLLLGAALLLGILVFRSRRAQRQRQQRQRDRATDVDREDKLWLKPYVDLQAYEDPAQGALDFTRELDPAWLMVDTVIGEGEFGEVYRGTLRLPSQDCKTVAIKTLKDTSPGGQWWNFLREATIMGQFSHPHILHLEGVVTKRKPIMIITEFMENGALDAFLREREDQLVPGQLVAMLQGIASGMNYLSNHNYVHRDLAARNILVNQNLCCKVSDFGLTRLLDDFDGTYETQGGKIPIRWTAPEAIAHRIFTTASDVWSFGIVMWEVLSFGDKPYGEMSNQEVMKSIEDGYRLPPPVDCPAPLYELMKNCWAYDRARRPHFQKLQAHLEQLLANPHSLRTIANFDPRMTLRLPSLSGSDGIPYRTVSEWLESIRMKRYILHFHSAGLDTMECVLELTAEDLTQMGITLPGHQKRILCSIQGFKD
Aurora kinase A (Homo sapiens), sequence (O14965 whole entry): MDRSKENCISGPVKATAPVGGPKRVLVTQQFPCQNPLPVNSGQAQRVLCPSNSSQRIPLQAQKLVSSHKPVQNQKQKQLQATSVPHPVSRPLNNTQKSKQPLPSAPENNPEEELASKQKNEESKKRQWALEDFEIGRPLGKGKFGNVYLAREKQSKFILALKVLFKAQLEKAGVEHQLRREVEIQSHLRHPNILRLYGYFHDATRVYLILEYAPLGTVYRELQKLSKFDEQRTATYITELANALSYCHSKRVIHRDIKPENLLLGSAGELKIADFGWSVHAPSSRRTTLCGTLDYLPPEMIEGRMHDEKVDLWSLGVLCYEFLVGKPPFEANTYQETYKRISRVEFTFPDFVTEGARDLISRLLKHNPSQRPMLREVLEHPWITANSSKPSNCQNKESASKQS

Compound: CNC(=O)c1ccccc1Nc1cc(Nc2ccc(N3CCOCC3)cc2OC)ncc1C(F)(F)F [VS-4718]
- residual activity [1]: 111%
- inhibition (4T1 [2]): Active
- inhibition (4T1 [3]): inactive
- Activity (4T1 [4]): inactive
- Activity (4T1 [5]): >50%
- residual activity (Homo sapiens): 95%
- fold change (FC) (4T1 [6]): 2
- inhibition [7]: 8%
- Activity [8]: Non-Toxic
- inhibition [9]: Active
- Activity (ID8 [10]): Active
- Activity (4T1 [11]): Active
- inhibition [12]: Active
- residual activity [13]: 106%
- residual activity [14]: 104%
- residual activity [15]: 109%
- Activity (ID8 [16]): Active
- residual activity [17]: 96%
- Activity (4T1 [18]): inactive
- Activity (4T1 [19]): Active
- residual activity [20]: 84%
- Activity (4T1 [21]): Active
- Activity (4T1 [22]): inactive
- residual activity [23]: 96%
- Imax (4T1 [24]): ~60%
- residual activity [25]: 78%
- residual activity [26]: 32%
- Activity (4T1 [27]): Active
- inhibition [28]: Active
- residual activity [29]: 108%
- Activity (4T1 [30]): 23.8%
- residual activity [31]: 99%
- inhibition [32]: Active

Reference: ChEMBL document CHEMBL5715945 (Cancer Biol Ther, 2010)
